Assay results: the NIST ThermoML archive (doi:10.1021/acs.jced.5b01039)
Several values for one entry are separate records, joined by “and”; a condition that tells them apart may be missing. Identical values can stand only once. ± gives the expanded uncertainty stated by the source.

Conditions: Liquid; for vapor or sublimation pressure: Closed cell (Static) method; for mass density: Pycnometric method

## F/C=C/C(F)(F)F [trans-1,3,3,3-tetrafluoropropene]
300 K
  vapor or sublimation pressure: 526.8 ± 1.4 kPa and 526.6 ± 1.4 kPa
  mass density: 1157.7 ± 1 kg/m3 and 1158 ± 1 kg/m3
310 K
  vapor or sublimation pressure: 703.2 ± 1.6 kPa and 702.4 ± 1.6 kPa
  mass density: 1122.8 ± 1 kg/m3
320 K
  vapor or sublimation pressure: 919.6 ± 2 kPa and 919 ± 2 kPa
  mass density: 1085.1 ± 1 kg/m3
330 K
  vapor or sublimation pressure: 1182.6 ± 2.5 kPa and 1182.3 ± 2.5 kPa
  mass density: 1045.3 ± 1 kg/m3 and 1044.7 ± 1 kg/m3
340 K
  vapor or sublimation pressure: 1498.4 ± 3 kPa and 1498.6 ± 3 kPa
  mass density: 1000.9 ± 1 kg/m3 and 1001.5 ± 1 kg/m3
350 K
  vapor or sublimation pressure: 1874 ± 3.7 kPa and 1874.1 ± 3.7 kPa
  mass density: 950.3 ± 1.1 kg/m3 and 950.6 ± 1.1 kg/m3
360 K
  vapor or sublimation pressure: 2318 ± 4.5 kPa and 2319.2 ± 4.5 kPa
  mass density: 889.8 ± 1.1 kg/m3
370 K
  vapor or sublimation pressure: 2841.4 ± 5.5 kPa and 2842.7 ± 5.5 kPa
  mass density: 810.1 ± 1.3 kg/m3
380 K
  vapor or sublimation pressure: 3460 ± 6.4 kPa and 3461.5 ± 6.4 kPa
  mass density: 668.8 ± 1.5 kg/m3 and 670.4 ± 1.5 kg/m3

## F/C=C\C(F)(F)F [(Z)-1,3,3,3-tetrafluoro-1-propene]
300 K
  vapor or sublimation pressure: 185.9 ± 0.8 kPa and 186.4 ± 0.8 kPa
  mass density: 1218.6 ± 1 kg/m3 and 1219.2 ± 1 kg/m3
310 K
  vapor or sublimation pressure: 260.4 ± 0.9 kPa and 260.6 ± 0.9 kPa
  mass density: 1191.2 ± 1 kg/m3
320 K
  vapor or sublimation pressure: 355.3 ± 1 kPa and 355.1 ± 1 kPa
  mass density: 1162 ± 1 kg/m3 and 1163.5 ± 1 kg/m3
330 K
  vapor or sublimation pressure: 473.3 ± 1.2 kPa and 473.5 ± 1.2 kPa
  mass density: 1132.5 ± 1 kg/m3 and 1131.5 ± 1 kg/m3
340 K
  vapor or sublimation pressure: 619 ± 1.4 kPa and 619.2 ± 1.4 kPa
  mass density: 1100.2 ± 1 kg/m3 and 1101.7 ± 1 kg/m3
350 K
  vapor or sublimation pressure: 795.2 ± 1.7 kPa and 794.7 ± 1.7 kPa
  mass density: 1066.1 ± 1 kg/m3 and 1067.3 ± 1 kg/m3
360 K
  vapor or sublimation pressure: 1007.3 ± 2 kPa
  mass density: 1032.6 ± 1 kg/m3 and 1032.3 ± 1 kg/m3
370 K
  vapor or sublimation pressure: 1258.9 ± 2.5 kPa and 1258.7 ± 2.5 kPa
  mass density: 993 ± 1 kg/m3 and 993.3 ± 1 kg/m3
380 K
  vapor or sublimation pressure: 1554.1 ± 3 kPa and 1556.9 ± 3 kPa
  mass density: 951.5 ± 1 kg/m3 and 949.7 ± 1 kg/m3
390 K
  vapor or sublimation pressure: 1903.6 ± 3.6 kPa and 1903.7 ± 3.6 kPa
  mass density: 900.5 ± 1.1 kg/m3 and 901.4 ± 1.1 kg/m3
400 K
  vapor or sublimation pressure: 2308.3 ± 4.2 kPa and 2308.8 ± 4.2 kPa
  mass density: 843.9 ± 1.1 kg/m3 and 843.6 ± 1.1 kg/m3
